Laboratory results from US20130158127A1, “TEA TREE OIL DERIVATIVES” (priority 2011, published 2013).

Test system: Vero cells
Test: Vero cell cytotoxicy assays (light microscopy of monolayers)

## polysorbate 60 [PS-60]
A small proportion of cells appeared to remain healthy
  sub-toxic dose: 0.125%
No changes compared to the untreated control
  non-toxic dose: 0.06%
